From PubChem BioAssay (NCI)
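Five concentrations, 48 hours, 96-well plates. GI50 = concentration required for 50% inhibition of growth. At the TGI there is no net growth.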

The molecules below were run on MDA-MB-468 breast (assay: NCI-60 cell line screen, 48 h).

Row | SMILES | GI50 [nM] | TGI [µM]
1 | COc1ccc(S(=O)(=O)N(Cc2ccc3c(n2)C=CC(C)(C)O3)C2CCC2)cc1OC | < 10 | < 0.01
2 | COc1cc(Cn2c(-c3ccccc3)cc3c2-c2oncc2CC3)cc(OC)c1OC | 298 | 2.21
3 | CCCNC(=S)N/N=C(\C)c1ccccn1 | < 10 | 0.109
4 | CN1C(=O)N(c2ccccc2)C2N=C(N/N=C/c3ccccc3)SC21 (centres undefined) | 510 | > 100
5 | C[C@]12CC[C@@H]3c4ccc(O)cc4C[C@@H](CCCCCCCCCS(=O)CCCC(F)(F)C(F)(F)F)[C@H]3[C@@H]1CC[C@@H]2O (some centres undefined) | > 100000 | > 100
6 | COc1ccc(-c2nc(-c3nc4ccc(C)cc4[nH]3)c3ccccn23)cc1 | 2320 | 7.13
7 | CCOC(=O)/C(O)=C(/C=NC(=S)c1ccncc1)C(=O)OCC | > 100000 | > 100
8 | COc1ccc(C2CC(=O)c3c(O)c(OC)c(OC)c(OC)c3O2)c(O)c1 (centres undefined) | 83.1 | 36.9
9 | Cc1[nH]c(N=Nc2ccccc2)nc1N=Nc1ccccc1 | 1920 | 5.99
10 | COc1ccc(-n2c(SCc3cc(OC)c(OC)c(OC)c3)nc3ccc(C)cc3c2=O)cc1 | 3390 | 48.3
11 | Cn1cc(C2=C(c3cn(C)c4c(N)cccc34)C(=O)NC2=O)c2ccccc21 | 1280 | > 25
12 | C[C@]12CC[C@@H]3c4ccc(O)cc4CC[C@H]3[C@@H]1CC[C@@H]2NS(=O)(=O)c1ccc(C(F)(F)F)cc1 | 2180 | 6.23
13 | O=C(C[C@@H](C(=O)NCc1cccc(C(F)(F)F)c1)N1C(=O)[C@@H](N2C(=O)OC[C@@H]2c2ccccc2)[C@H]1/C=C/c1ccccc1)NC1CCN(Cc2ccccc2)CC1 | 2660 | 18.4
14 | NC(N)=NC(N)=Nc1cc2ccccc2c2ccccc12 | 2810 | 14.3
15 | CN(C)CCNc1ccc2ncc(C#Cc3cncc(C(=O)Nc4ccc(CN5CCN(C)CC5)c(C(F)(F)F)c4)c3)n2n1 | 617 | 1.41
16 | COc1cccc(NCc2nnc(Nc3ccc(Cl)cc3)c3ccccc23)c1 | 1050 | 4.73
17 | Cc1cc(C2CCCCC2)n(O)c(=O)c1 | 1720 | 8.96
18 | CC[C@H](C)[C@H](NC(=O)[C@H]1CCCCN1C)C(=O)N(C)[C@H](CCc1nc(C(=O)N[C@@H](Cc2ccccc2)C[C@H](C)C(=O)OC)cs1)C(C)C | 69.6 | –

Row | SMILES | GI50 [nM] | TGI [µM]
19 | Cn1cc(C2=C(c3cn(CCCN=C(N)N)c4ccccc34)C(=O)NC2=O)c2ccccc21 | > 11200 | > 25
20 | C=C1C(=O)O[C@H]2[C@H]1CC/C(COC(=O)/C=C\C(=O)NCc1ccc(Cn3c(=O)sn(-c4ccc(C#N)cc4)c3=O)cc1)=C\CC[C@@]1(C)O[C@@H]21 | 735 | 1.67
21 | Cn1cc(-c2csc(-c3cccc(F)c3)n2)c2cccnc21 | 20000 | 55.6
22 | COc1cc([C@@H]2c3cc4c(cc3C(O[C@@H]3O[C@@H]5CO[C@@H](c6cccs6)OC5[C@H](O)[C@H]3O)C3COC(=O)[C@@H]32)OCO4)cc(OC)c1O (some centres undefined) | 91.4 | 0.302
23 | CC(C)CSc1nc(Nc2ccccc2)c(C#N)c(-c2ccc(F)cc2)n1 | 3070 | 17.4
24 | COc1ccc(OC(=O)O[C@H]2[C@H](O[C@H]3[C@@H](O)COC(O[C@H]4C[C@H]5[C@@H]6CC=C7C[C@@H](O)CC[C@]7(C)[C@H]6CC[C@]5(C)[C@H]4[C@H](C)C(=O)CCC(C)C)[C@@H]3OC(C)=O)OC[C@@H](O)[C@@H]2O)cc1 (some centres undefined) | 37.3 | 4.94
25 | COC(=O)[C@]12CCC(C)(C)C[C@H]1C1=CC[C@@H]3[C@@]4(C)C/C(=C/c5cccnc5)C(=O)C(C)(C)[C@@H]4CC[C@@]3(C)[C@]1(C)CC2 | 12300 | 47.2
26 | COc1ccc(C(=O)/C=C/c2cccnc2Nc2cc(OC)c(OC)c(OC)c2)cc1 | 551 | 2.76
27 | COc1cc(-c2c(C#N)c(N)n3c(nc4ccccc43)c2C#N)cc(Br)c1OC | 5540 | > 100
28 | CC12CCCC(CC(=O)c3[nH]c4ccccc4c31)C2 (centres undefined) | 375 | 4.16
29 | C[C@]12CC[C@@H]3c4ccc(Oc5nc(N6CC6)nc(N6CC6)n5)cc4CC[C@H]3[C@@H]1CCC2=O | 2000 | 12.6
30 | Nc1nccc(-c2c(-c3ccc(F)cc3)ncn2CCCN2CCOCC2)n1 | > 6390 | > 25
31 | Cc1cc(C)cc(Nc2cc(C)nc3nc(C(F)(F)F)nn23)c1 | 8300 | > 100
32 | CCCCNC(=O)NS(=O)(=O)c1ccc(N2N=C(c3ccc(C)cc3C)CC2c2ccc(N(C)C)cc2)cc1 (centres undefined) | 2220 | 5.82
33 | O=C(CCCSc1nc(-c2ccc(Cl)cc2)cc(-c2ccc(Cl)cc2)n1)NO | 1420 | 3.48
34 | CCCCC/C=C/C/C=C/CCCCCCCC1=NC(C)(C)CN1C(C)C | 1370 | 2.72
35 | COc1ccc(-c2cc3c(nn2)-c2ccccc2C3=O)cc1 | > 100000 | > 100
